Results published in publication PMC5735979, “Total Coumarins from Hydrangea paniculata Show Renal Protective Effects in Lipopolysaccharide-Induced Acute Kidney Injury via Anti-inflammatory and Antioxidant Activities” (Frontiers in Pharmacology, 2017).

Assays:
Format in all cases: in vivo, C57BL/6 mice
[1] = Pharmacokinetics study after single oral dose of HP; settings: for Blood drug concentration: 12 h after single oral dose of 50 mg/kg HP; for Blood drug concentration / concentration at 0.08 h / concentration at 0.25 h / concentration at 0.5 h / concentration at 1 h / concentration at 1.5 h / concentration at 2 h / concentration at 3 h / concentration at 4 h / concentration at 8 h / half-life / AUC(0-inf) / AUC(0-t) / Cmax / Tmax / MRT last / MRT inf: mice, n = 5; for Blood drug concentration / concentration at 0.08 h / concentration at 0.25 h / concentration at 0.5 h / concentration at 1 h / concentration at 1.5 h / concentration at 2 h / concentration at 3 h / concentration at 4 h / concentration at 8 h: mean ± SD; for concentration at 0.08 h / concentration at 0.25 h / concentration at 0.5 h / concentration at 1 h / concentration at 1.5 h / concentration at 2 h / concentration at 3 h / concentration at 4 h / concentration at 8 h / half-life / AUC(0-inf) / AUC(0-t) / Cmax / Tmax / MRT last / MRT inf: male, C57BL/6, mouse, plasma; for concentration at 0.08 h: 0.08 h after single oral dose of 50 mg/kg HP; for concentration at 0.08 h / concentration at 0.25 h / concentration at 0.5 h / concentration at 1 h / concentration at 1.5 h / concentration at 2 h / concentration at 3 h / concentration at 4 h / concentration at 8 h: read-out: Blood drug concentration; for concentration at 0.25 h: 0.25 h after single oral dose of 50 mg/kg HP; for concentration at 0.5 h: 0.5 h after single oral dose of 50 mg/kg HP; for concentration at 1 h: 1 h after single oral dose of 50 mg/kg HP; for concentration at 1.5 h: 1.5 h after single oral dose of 50 mg/kg HP; for concentration at 2 h: 2 h after single oral dose of 50 mg/kg HP; for concentration at 3 h: 3 h after single oral dose of 50 mg/kg HP; for concentration at 4 h: 4 h after single oral dose of 50 mg/kg HP; for concentration at 8 h: 8 h after single oral dose of 50 mg/kg HP; for half-life: elimination half-life; for half-life / AUC(0-inf) / AUC(0-t) / Cmax / Tmax / MRT last / MRT inf: single oral dose of 50 mg/kg HP; for MRT last: read-out: MRT(0−t); for MRT inf: read-out: MRT(0−∞)
Experimental: All of the animals were fasted for 12 h before receiving HP and were then allowed to eat for 4 h after administration. The dosing solutions used for the animal studies were prepared by dissolving the required amounts of HP in distilled water. […] The plasma was separated and stored at 2–8°C until analysis. […] Louis, MO, USA) and then mixed with 180 μL of acetonitrile (Merck, Darmstadt, Germany) to precipitate protein. After centrifugation, aliquots (10 μL each) of the supernatant were used for analysis. […] The mobile phase consisted of solvent A [0.1% formic acid (Dikma Technologies, Inc., CA, USA) in water] and solvent B [0.1% formic acid in methanol (Merck)]. The analytes were eluted at a flow rate of 0.2 mL/min, with the following gradient elution: from 0 to 0.6 min, 20% B; linear increase to 95% B in 0.2 min; 95% B for 4 min, decrease to 20% B in 0.2 min; and stabilization at initial conditions for 6 min. The mass spectrometer was set for multiple reaction monitoring and was operated in a positive-ion mode with an electrospray ionization source. Nitrogen was used as the curtain gas and the collision gas. The ion-spray voltage was set at 5,500 V, and the gas temperature at 500°C.

[2] = tested on: caspase 3, 7, 8, 9 in kidney tissue; assay: Tubular cell apoptosis and caspases in LPS-challenged kidneys (IHC, RT-qPCR, western blot); settings: MMF 10 mg/kg; magnitude less than HP at 40 mg/kg
Experimental: LPS from Escherichia coli 0111:B4 was purchased from Sigma-Aldrich (St. Louis, MO, USA), and freshly dissolved in sterile 0.9% NaCl solution buffer before i.p. injection. For the standard treatment experiment, low dosage of LPS was used for induction of kidney injury. Inbred, 16–18 g, 4–6-week-old, male C57BL/6 mice were purchased from the SPF Biotechnology Co. Ltd. (Beijing, China). The sham group received 10 mL/kg saline by oral gavagedaily during the experiment, and at day 3 received a saline sham injection (i.p.). The LPS model group was exposed to the same procedure as the sham group, except receiving an LPS (20 mg/kg) injection (i.p.) at day 3, instead of saline. […]
For cleaved caspase 3 immunohistochemical analysis, the endogenous peroxidase activity in each section was quenched with 3% H2O2. […] Labelling was detected with a biotin-conjugated goat anti-rabbit IgG and avidin-biotin peroxidase complex. Cleaved caspase-3-positive cells in cortexes were scored in 30 random × 400 high-power fields (HPFs) with a ZEISS Observer A1 microscope (ZEISS, Germany).
The mRNA levels of selected important chemokines and cytokines in the kidneys, such as TNF-α, IL-1β, IL-6, intercellular adhesion molecule 1 (ICAM-1), vascular cell adhesion molecule 1 (VCAM-1), and MCP-1, as well as caspase family members, such as caspase 3, caspase 7, caspase 8, and caspase 9, were quantified by RT-qPCR. […]

[3] = tested on: peripheral blood leukocytes; assay: Peripheral blood leukocyte counts after LPS injection; settings: LPS i.p. injection
Experimental: To understand the effect of HP on peripheral leukocytes in LPS-induced septic mice, peripheral […] was collected in heparin pretreated tubes by retro-orbital bleeding at 4, 8, 12, 24, and 48 h post-LPS injection, and the number of monocytes, lymphocytes, and neutrophils in the […] at different time points was examined by an Automatic Hematology Analyzer (Celltac E MEK-7222, Nihon Kohden, Japan). The detailed experimental procedure is shown in Figure 1C, which is similar to that used to analyze the effect of HP treatment on LPS-induced AKI.

[4] = tested on: macrophages and neutrophils in kidneys; assay: Flow cytometric determination of kidney leukocytes; settings: LPS-induced AKI mice, flow cytometry, N = 8
Experimental: To determine the effect of HP on leukocyte populations in septic kidneys, kidney single-cell suspensions were prepared and analyzed. Briefly, the single-cell suspensions were first incubated with anti-mouse CD45-APC-Cy7 antibody (eBioscience, USA) for 30 min on ice. After washing, the cells were stained for 15 min on ice with fluorochrome-labeled monoclonal antibodies against anti-mouse Ly6G-PE, CD11c-FITC, or F4/80-APC (eBioscience, USA) for detection of neutrophils or macrophages. Six-color fluorescence flow cytometric analyses were performed (FACS Verse, BD, USA), and the data were analyzed with the FlowJo program (Tree Star, Inc., Ashland, CA, USA).

Structure (SMILES): O=c1ccc2cc(O)c(O)cc2o1 [Esculetin, esculetin]
- Blood drug concentration [1]: Not detectable
- concentration at 0.08 h [1]: 980 ± 800 nM
- concentration at 0.25 h [1]: 2.98 ± 1.24 µM
- concentration at 0.5 h [1]: 3 ± 1.05 µM
- concentration at 1 h [1]: 2240 ± 400 nM
- concentration at 1.5 h [1]: 2250 ± 1590 nM
- concentration at 2 h [1]: 650 ± 220 nM
- concentration at 3 h [1]: 680 ± 880 nM
- concentration at 4 h [1]: 300 ± 160 nM
- concentration at 8 h [1]: 120 ± 10 nM
- half-life [1]: 138 min
- AUC(0-inf) [1]: 6.66 µM·h
- AUC(0-t) [1]: 6.27 µM·h
- Cmax [1]: 3 µM
- Tmax [1]: 30 min
- MRT last [1]: 1.82 h
- MRT inf [1]: 2.38 h

Structure (SMILES): COc1c(C)c2c(c(O)c1C/C=C(\C)CCC(=O)OCCN1CCOCC1)C(=O)OC2 [MMF, Mycophenolate mofetil]
- tubular apoptosis in LPS-induced AKI [2]: ameliorated tubular apoptosis
- peripheral blood monocytes at 48 h after LPS ([3]; HP 40 mg/kg, MMF 10 mg/kg, N = 8): significantly reduced peripheral blood monocytes
- peripheral blood counts within the first 24 h after LPS ([3]; data not shown): did not change the peripheral blood counts
- infiltration of CD45+ F4/80+ CD11c+ macrophages and CD45+Ly6G+ neutrophils into kidneys [4]: produced similar inhibitory results

Structure (SMILES): O=c1ccc2ccc(O)cc2o1 [Umbelliferone, umbelliferone]
- Blood drug concentration [1]: Not detectable
- concentration at 0.08 h [1]: 4210 ± 2210 nM
- concentration at 0.25 h [1]: 9.12 ± 3.28 µM
- concentration at 0.5 h [1]: 7.35 ± 2.04 µM
- concentration at 1 h [1]: 3360 ± 760 nM
- concentration at 1.5 h [1]: 2060 ± 790 nM
- concentration at 2 h [1]: 1450 ± 790 nM
- concentration at 3 h [1]: 1100 ± 1300 nM
- concentration at 4 h [1]: 590 ± 170 nM
- concentration at 8 h [1]: 140 ± 140 nM
- half-life [1]: 101 min
- AUC(0-inf) [1]: 12.2 µM·h
- AUC(0-t) [1]: 11.8 µM·h
- Cmax [1]: 9.12 µM
- Tmax [1]: 15 min
- MRT last [1]: 1.58 h
- MRT inf [1]: 1.82 h

Structure (SMILES): O=c1ccc2ccc(O[C@@H]3O[C@H](CO[C@@H]4OC[C@](O)(CO)[C@H]4O)[C@@H](O)[C@H](O)[C@H]3O)cc2o1 [apiosylskimmin]
- concentration of plasma apiosylskimmin ([1]; mouse, in vivo, po, 50 mg/kg): too low to be determined
